{"source": "paper PMC12567082", "about": "“Silver(I) Complexes Bearing S-Alkyl Thiosalicylic Acid Derivatives: DNA/BSA Binding and Antitumor Activity In Vitro and In Vivo” (Pharmaceutics, 2025)", "key": {"CT-DNA [1]": {"tested_on": "CT-DNA", "test": "UV-Vis absorption titration with CT-DNA", "type": "binding, calf", "settings": "ΔG = −RT lnKb", "method": "All DNA-binding studies were conducted in 0.01 M phosphate-buffered saline (PBS, pH 7.40) at 25 °C. […] To eliminate absorbance from CT-DNA, identical amounts of DNA were added to both the test and reference solutions prior to spectral recording.\nIntrinsic binding constants (Kb) were calculated using the equation to determine the DNA-binding affinities of the complexes (1):[DNA]/(εa − εf) = [DNA]/(εb − εf) + 1 [Kb(εb − εf)](1)\n[DNA] represents the concentration of DNA; apparent extinction coefficient, εa, was calculated as the ratio of the observed absorbance to the concentration of the complex (Aobs/[complex]); and εb and εf correspond to the extinction coefficients of the complex in the fully bound and free forms, respectively. Kb was determined from the ratio of the slope to the intercept obtained from the corresponding linear plots."}, "CT-DNA [2]": {"tested_on": "CT-DNA", "test": "EB–CT-DNA fluorescence quenching", "type": "binding, calf", "settings": "EB–CT-DNA 8.52 × 10^−5 M, PBS pH 7.4", "method": "All samples were prepared in phosphate-buffered saline (PBS, pH 7.4). Stern–Volmer Equation (2) was used to interpret the fluorescence quenching data."}, "BSA": {"target": "T1, BSA (Bos taurus, UniProt P02769)", "T1 construct": "purchased Sigma-Aldrich", "T1 sequence (P02769 25-607)": "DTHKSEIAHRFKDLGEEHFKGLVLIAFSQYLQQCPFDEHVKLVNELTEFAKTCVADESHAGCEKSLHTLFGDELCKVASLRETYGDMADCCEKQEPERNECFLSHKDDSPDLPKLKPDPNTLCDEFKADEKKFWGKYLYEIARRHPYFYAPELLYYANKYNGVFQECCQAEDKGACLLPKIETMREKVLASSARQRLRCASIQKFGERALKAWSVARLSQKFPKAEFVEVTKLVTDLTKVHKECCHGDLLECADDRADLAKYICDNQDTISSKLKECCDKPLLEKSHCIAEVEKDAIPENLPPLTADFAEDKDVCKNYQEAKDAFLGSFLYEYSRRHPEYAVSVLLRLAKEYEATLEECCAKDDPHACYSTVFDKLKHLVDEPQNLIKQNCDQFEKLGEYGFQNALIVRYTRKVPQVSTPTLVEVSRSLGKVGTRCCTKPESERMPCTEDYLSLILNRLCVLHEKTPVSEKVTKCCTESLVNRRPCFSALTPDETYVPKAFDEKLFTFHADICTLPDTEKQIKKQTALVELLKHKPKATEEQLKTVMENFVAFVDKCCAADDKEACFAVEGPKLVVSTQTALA", "test": "BSA tryptophan fluorescence quenching", "type": "binding, bovine", "method": "The protein binding study was carried out using tryptophan fluorescence quenching experiments with BSA. […] Fluorescence emission spectra were recorded between 300 and 500 nm, with excitation at 295 nm.\nThe quenching constant Ksv was determined based on the Stern–Volmer relationship, as described by Equation (3):I0/I = 1 + kqτ0[Q] = 1 + Ksv[Q](3)\nIn this equation, I0 and I refer to the fluorescence intensities of BSA measured without and with the quencher (complex), τ0 represents the average fluorescence lifetime of free BSA (∼10^−8 s), and [Q] indicates the quencher concentration.\nParameters such as association binding constant (K) and the number of binding sites per albumin (n) were obtained from Scatchard Equation (4):(ΔI/I0)/[Q] = nK − KΔI/I0(4)\nTo minimize inner filter, both intensities of fluorescence originating from excitation and emission light absorption and re-absorption were corrected by employing Equation (5); Icor and Iobs are the corrected and observed fluorescence intensities, respectively, and Aex and Aem represent the absorbance of the metal complex at the excitation and emission wavelengths, respectively.Icor = Iobs · […]^(Aex + Aem)/2(5)"}, "[3]": {"tested_on": "human breast cancer (MDA-MB-468)", "test": "MTT assay MDA-MB-468", "type": "cell-based", "method": "(§1) Mouse breast cancer (4T1), human breast cancer (MDA-MB-468), mouse colon cancer (CT26), human colon cancer (HCT-116), mouse lung cancer (LLC1), human lung cancer (A549), mouse mesenchymal stem cells (mMSC), and human fibroblast cell lines (MRC-5) were used in this study and were consistently cultured in complete Dulbecco’s Modified Eagle Medium (DMEM) (Sigma-Aldrich, St. Louis, MO, USA) in incubator (5% CO2) under standard conditions. Complete DMEM was Dulbecco’s Modified Eagle Medium supplemented with 10% fetal bovine serum (FBS), 1 mmol/L penicillin–streptomycin, 1 mmol/L mixed nonessential amino acids, and 2 mmol/L L-glutamine (Sigma-Aldrich, St. Louis, MO, USA). All cancer cell lines and MRC-5 cell line were obtained from American Type Culture Collection (ATCC, Manassas, VA, USA), but mMSC was manufactured by Gibco (Middlesex County, MA, USA).\n(§2) In 96-well microplates, we seeded cancer and non-cancer cells, more exactly 5 × 10^3 cells per well in 100 μL of complete DMEM (Sigma-Aldrich, St. Louis, MO, USA). […] Tested concentration range for all metal-based substances was 3.9–500 μM. After incubation with MTT solution (5 mg/mL; pH 7.2) for 4 h, optical density was determined using Zenyth 3100 microplate multimode detector (Salzburg, Austria). All experiments were performed three times, each in triplicate, and the IC50 values as well as selectivity indexes (IC50 for mMSC or MRC-5/IC50 for mouse or human cancer cells) were calculated."}, "[4]": {"tested_on": "mouse mesenchymal stem cells (mMSC)", "test": "MTT assay mMSC", "type": "cell-based", "settings": "48 h", "method": "as §1, §2"}, "[5]": {"tested_on": "human fibroblast cell lines (MRC-5)", "test": "MTT assay MRC-5", "type": "cell-based", "method": "as §1, §2"}, "4T1 mammary tumors": {"tested_on": "4T1 mammary tumors", "test": "Breast cancer development in vivo (orthotopic 4T1)", "set-up": "species or system BALB/C female mice", "settings": "five single doses every third day, after day 18", "method": "Ethics Committee of the Faculty of Medical Sciences of the University of Kragujevac, Serbia, approved all experiments (01-5301/11). ARRIVE guidelines and EU Directive 2010/63/EU for animal experiments were followed. Experimental animals, BALB/C female mice (8–10 weeks old), were housed under standard conditions (temperature-controlled environment, a 12 h light–dark cycle, fed ad libitum, and observed daily) throughout whole duration of experiment. Animals were inoculated with 4T1 cells (3 × 10^4) into the fourth mammary fat pad as previously described. Animals were randomly assigned to experimental or control groups, and after palpable tumors were detected, the pharmacological treatments were started. Female BALB/C mice intraperitoneally received either C3 (3 mg/kg), C3 (6 mg/kg), CDDP (6 mg/kg), or vehicle in distilled water with 0.05% DMSO (Sigma-Aldrich, St. Louis, MO, USA) (untreated group) in five single doses every third day (8 animals per group). Using electronic calipers (Moore and Wright, Sheffield, UK), the sizes of primary 4T1 mammary tumors were morphometrically evaluated. On the 30th day of experiment, animals were sacrificed, blood was collected (for determination of serum levels of ALT, AST, urea, and creatinine), and tissue sections (liver and kidney) were stained with H&E for further analysis. Liver or kidney sections were analyzed by two observers, and the injury levels were determined as previously reported."}, "4T1 cells [6]": {"tested_on": "4T1 cells", "test": "Colony formation assay", "type": "cell-based, mouse", "settings": "0.5 µM, 14 days", "method": "Cancer 4T1 cells were seeded in a six-well plate (500 cells per well) and incubated with C3 (0.5 µM) or DMEM only for 14 days. After fixation, the colonies were stained using crystal violet."}, "4T1 cells [7]": {"tested_on": "4T1 cells", "test": "Scratch assay", "type": "cell-based, mouse", "settings": "0.5 µM, after 12 and 24 h, vs untreated", "method": "In order to determine migratory capacity of C3-treated 4T1 cells, scratch assay was performed as previously described. Once 4T1 cells formed a confluent monolayer, an injury was made, and first representative images were taken immediately. Further 4T1 cells were exposed to C3 (0.5 µM) or DMEM only (untreated cells), and observation under inverted optical microscope (Olympus, Tokyo, Japan) was made after 4 h, 12 h, and 24 h. Scratch width was quantified by ImageJ (version 1.54.0 NIH, Madison, WI, USA)."}}}
{"smiles": "CCCSc1ccccc1C(=O)[O][Ag].CCCSc1ccccc1C(=O)[O][Ag]", "note": "[C3, [Ag2(S-propyl-thiosal)2]]", "values": [{"measurement": "ΔG (Gibbs free energy)", "setting": "CT-DNA [1]", "value": -7.29, "unit": "kcal/mol"}, {"measurement": "Ksv EB (Stern–Volmer constant)", "setting": "CT-DNA [2]", "value": "(1.4 ± 0.1) × 10^4 M^−1"}, {"measurement": "kq (quenching rate constant)", "setting": "BSA; BSA 2 µM", "value": "(9.6 ± 0.1) × 10^12 M^−1 s^−1"}, {"measurement": "Ksv (Stern–Volmer constant)", "setting": "BSA; BSA 2 µM, λex 295 nm", "value": "(9.6 ± 0.1) × 10^4 M^−1"}, {"measurement": "K (binding constant)", "setting": "BSA; Scatchard equation", "value": "(1.1 ± 0.1) × 10^5 M^−1"}, {"measurement": "n (number of binding sites)", "setting": "BSA; Scatchard equation", "value": 1.1}, {"measurement": "IC50", "setting": "[3]; MDA-MB-468, 24 h", "value": "15.5 ± 1.21", "unit": "µM"}, {"measurement": "Selectivity Index (IC50 mMSC or MRC-5/ IC50 Cancer Cell)", "setting": "[3]; MDA-MB-468, 24 h", "value": 2.46}, {"measurement": "IC50", "setting": "[3]; MDA-MB-468, 48 h", "value": "8.76 ± 1.24", "unit": "µM"}, {"measurement": "Selectivity Index (IC50 mMSC or MRC-5/ IC50 Cancer Cell)", "setting": "[3]; MDA-MB-468, 48 h", "value": 4.95}, {"measurement": "IC50", "setting": "[4]", "value": "4.22 ± 0.33", "unit": "µM"}, {"measurement": "IC50", "setting": "[5]; MRC-5, 24 h", "value": "38.1 ± 1.13", "unit": "µM"}, {"measurement": "IC50", "setting": "[5]; MRC-5, 48 h", "value": "43.3 ± 1.1", "unit": "µM"}, {"measurement": "tumor growth compared to the untreated group", "setting": "4T1 mammary tumors; 3 mg/kg i.p.", "value": "significantly slower"}, {"measurement": "tumor growth compared to the untreated group", "setting": "4T1 mammary tumors; 6 mg/kg i.p.", "value": "significantly slower"}, {"measurement": "4T1 colony formation", "setting": "4T1 cells [6]", "value": "almost total inhibition"}, {"measurement": "migration ability of 4T1 cells", "setting": "4T1 cells [7]", "value": "significantly reduced"}]}
